The values below come from patent US6346535B1, “Fungicidal mixtures” (American Cyanamid Company, priority 1999, dated 2002).

Where two headings read alike, the source gives them in different places.

What all share (assay type): in vivo
For test [1], the system named is Erysiphe cichoracearum on cucumbers. Put plainly: Greenhouse trial, 4 day residual, Erysiphe cichoracearum on cucumbers. As to conditions: for pest or weed control at 0.4 ppm / pest or weed control at 2 ppm / pest or weed control at 10 ppm / pest or weed control at 50 ppm: Golovinomyces cichoracearum, 96 h, read-out: Observed Efficacy. An excerpt:
(§1) The fungicides are applied in single treatments, or in a combination comprising a benzophenone of formula I and a compound selected from (A) through (E) as defined above. The compounds are applied in form of an aqueous spray mix obtained from a concentrated formulation or the technical material.
(§2) 1. Seed is planted in 6 cm diameter plastic pots and maintained in the greenhouse.
(§3) 2. When the primary leaf is fully expanded (in the case of cereals) or several leaves are present (in the case of dicots), formulated test compounds are sprayed with a three nozzle overhead fungicide sprayer to near run-off. Alternatively, a single nozzle overhead track sprayer is used for application of the compounds to cereals at a rate of 200 liters/ha (l/ha). Plants are then allowed to air-dry.
(§4) 3. Inoculation precedes treatment in the case of curative evaluations and follows treatment in case of residual evaluations. For inoculation of powdery mildew disease, plants are set up on greenhouse benches with bottom watering mats and inoculated by dusting them with conidia from infected plants. Between inoculation and treatment for curative evaluations and between treatment and inoculation for residual evaluations, plants are maintained in the greenhouse with bottom watering. For inoculation of non-powdery mildew diseases, an aqueous spore suspension of the pathogen is applied to the plant and the plants are kept 1-2 days in a moist infection chamber before being returned to the greenhouse where they are maintained by bottom watering.
(§5) 4. Disease on the foliage as percent leaf area with disease symptoms/signs is evaluated about 7 days after inoculation. In the case of wheat, the tips and bases of the leaves are excluded from the evaluation. [formula]
(§6) 1. Technical compounds are formulated in a solvent/surfactant system consisting of 5% acetone and 0.05% Tween 20 in deionized water. Compounds are dissolved in acetone prior to addition of the water; the Tween 20 can be added through either the acetone or the water. Dilutions are made using the solvent/surfactant system. Formulated compounds are prepared using deionized water.
(§7) Assessments of the diseases took place at the indicated day after the application of the compounds. Per cent infected leaf area infected was evaluated. The efficacy of the compounds/compounds mixtures to control the diseases was calculated by using the formula given above under item 4: […]
(§8) Synergy of a fungicide mixture was determined by comparing the actual (observed) fungicidal activity of the mixture to the expected fungicidal activity of the mixture as calculated using the COLBY formula given hereinabove.

In test [2] the test system is Puccinia recondita on wheat. Put plainly: Greenhouse trial, 4 day residual, Puccinia recondita on wheat. As to conditions: for pest or weed control at 0.4 ppm / pest or weed control at 2 ppm / pest or weed control at 10 ppm / pest or weed control at 50 ppm: Puccinia recondita, 96 h, read-out: Observed Efficacy.
Description: as §1, §2, §3, §4, §5, §6, §7, §8
Fungicidal Efficacy of the Mixture of BP-4+Other Fungicides (4 Day Residual) Against Puccinia recondita on Wheat
Fungicidal Efficacy of the Mixture of BP-4+Myclobutanil (4 Day Residual) Against Puccinia recondita on Wheat

For test [3], the system named is Pyrenophora teres on barley. Put plainly: Greenhouse trial, 4 day residual, Pyrenophora teres on barley. As to conditions: 4 day residual; for pest or weed control at 0.4 ppm / pest or weed control at 2 ppm / pest or weed control at 10 ppm / pest or weed control at 50 ppm: Pyrenophora teres, 96 h, read-out: Observed Efficacy.
Description: as §1, §2, §3, §4, §5, §6, §7, §8
Fungicidal Efficacy of the Mixture of BP-4+Other Fungicides (4 Day Residual) Against Pyrenophora teres on Barley

In test [4] the test system is Blumeria graminis f. sp. tritici on wheat. Put plainly: Greenhouse trial, 2 day curative, Blumeria graminis f. sp. tritici on wheat. The conditions noted are these: Table XVII, compound alone. Here is the method:
The trials are carried out under greenhouse (Examples 1 to 18) or field conditions (Example 19) in residual or curative applications. The fungicides are applied in single treatments, or in a combination comprising a benzophenone of formula I and a compound selected from (A) through (E) as defined above. The compounds are applied in form of an aqueous spray mix obtained from a concentrated formulation or the technical material.
as §2, §3, §4, §5, §6, §7, §8
Fungicidal Efficacy of the Mixture of Different Benzophenones+Metconazole (2 Day Curative) Against Blumeria graminis f. sp. tritici on Wheat
The tank mixes were obtained from technical material of the benzophenones BP-2 and BP-4 and metconazole.

[5] abbreviates: Table XIV (Example 14), 4 day residual, dose rate 0.4 ppm.
The mark [6] stands for this setting: Table XIV (Example 14), 4 day residual, dose rate 2 ppm.
Where [7] appears, read: Table XV (Example 15), 4 day residual, dose rate 0.4 ppm.
The mark [8] stands for this setting: Table XV (Example 15), 4 day residual, dose rate 2 ppm.
Where [9] appears, read: Table XV (Example 15), 4 day residual, dose rate 10 ppm.
[10] abbreviates: Table XVI (Example 16), dose rate 0.4 ppm.
[11] abbreviates: Table XVI (Example 16), dose rate 2 ppm.
Setting [12] is: Table XVI (Example 16), dose rate 10 ppm.
The mark [13] stands for this setting: Table XIV (Example 14), 4 day residual, dose rate 10 ppm.
Where [14] appears, read: Table XV (Example 15), 4 day residual, dose rate 50 ppm.
Setting [15] is: Table XVI (Example 16), dose rate 50 ppm.
[16] abbreviates: Table XIV (Example 14), 4 day residual, dose rate 50 ppm.

As to Dinocap [listing 1 of 2 here], the “Observed Efficacy” value amounted to 0 in test [1] (setting [5]); 0 in test [1] (setting [6]); 4 in test [2] (setting [7]); 13 in test [2] (setting [8]); 23 in test [2] (setting [9]); 0 in test [3] (setting [10]). The “Observed Efficacy” value stood at 0 in test [3] (setting [11]) and 5 in test [3] (setting [12]).
Turning to `CCCCC(C#N)(Cn1cncn1)c1ccc(Cl)cc1` (centres unmarked) [Myclobutanil], the pest or weed control at 0.4 ppm in test [1] (Table XI, compound alone, dose rate 0.4 ppm) was determined as 36%; in test [2] (Table XII, compound alone, dose rate 0.4 ppm), 13%; in test [3] (Table XIII (Example 13), dose rate 0.4 ppm), 0%. Moreover, the pest or weed control at 2 ppm in test [1] (Table XI, compound alone, dose rate 2 ppm) was 52%; in test [2] (Table XII, compound alone, dose rate 2 ppm), 52%; in test [3] (Table XIII (Example 13), dose rate 2 ppm), 21%. Further, the pest or weed control at 10 ppm worked out at 73% in test [1] (Table XI, compound alone, dose rate 10 ppm); 72% in test [2] (Table XII, compound alone, dose rate 10 ppm); 40% in test [3] (Table XIII (Example 13), dose rate 10 ppm). The pest or weed control at 50 ppm is 96% in test [1] (Table XI, compound alone, dose rate 50 ppm); 99% in test [2] (Table XII, compound alone, dose rate 50 ppm); 82% in test [3] (Table XIII (Example 13), dose rate 50 ppm).
As to `COc1cc(C)c(C(=O)c2c(Cl)cccc2Cl)c(OCc2ccccc2F)c1OC` [BP-2, 2,6-dichloro-4′,5′-dimethoxy-6′-(2-fluorobenzyloxy)-2′-methylbenzophenone], the “Observed Efficacy” value in test [4] (dose rate 0.67 ppm) worked out at 4%; in test [4] (dose rate 2 ppm) it was 13%; in test [4] (dose rate 6 ppm), 18%; in test [4] (dose rate 18 ppm), 25%; in test [4] (dose rate 54 ppm), 67%.
In the case of `CC(Cc1ccc(C(C)(C)C)cc1)CN1C[C@@H](C)O[C@@H](C)C1` (some centres unmarked) [Fenpropimorph], the pest or weed control at 0.4 ppm came out at 0% in test [1] (setting [5]), 2% in test [2] (setting [7]) and 0% in test [3] (setting [10]). Besides, the pest or weed control at 2 ppm in test [1] (setting [6]) is 0%; in test [2] (setting [8]), 15%; in test [3] (setting [11]), 0%. The pest or weed control at 10 ppm in test [1] (setting [13]) was 7%; in test [3] (setting [12]) it was 3%. Moreover, the pest or weed control at 50 ppm in test [2] (setting [14]) stood at 60%.
Turning to Dinocap [listing 2 of 2 here], the results for the “Observed Efficacy” value in test [1] (setting [13]), in test [2] (setting [14]) and in test [3] (setting [15]) were 0, 54 and 22, respectively.
Consider `OC(c1ccc(Cl)cc1)(c1cncnc1)c1ccccc1Cl` (centres unmarked) [Fenarimol], for which the results for the pest or weed control at 0.4 ppm in test [1] (setting [5]) and in test [2] (setting [7]) were 5% and 0%, respectively. The figures for the pest or weed control at 2 ppm in test [1] (setting [6]), in test [2] (setting [8]) and in test [3] (setting [11]) were 34%, 9% and 0%, respectively. In addition, the figures for the pest or weed control at 10 ppm in test [1] (setting [13]), in test [2] (setting [9]) and in test [3] (setting [12]) were 42%, 23% and 4%, respectively. In addition, the pest or weed control at 50 ppm amounted to 67% in test [1] (setting [16]) and 90% in test [2] (setting [14]).
For `CCCN(CC)CC1COC2(CCC(C(C)(C)C)CC2)O1` (centres unmarked) [Spiroxamine], the pest or weed control at 0.4 ppm in test [1] (setting [5]) and in test [3] (setting [10]) was 0% each time. Further, the pest or weed control at 2 ppm in test [1] (setting [6]) worked out at 0%; in test [2] (setting [8]) it was 0%; in test [3] (setting [11]), 3%. The results for the pest or weed control at 10 ppm in test [1] (setting [13]), in test [2] (setting [9]) and in test [3] (setting [12]) were 2%, 4% and 5%, respectively. Besides, the values for the pest or weed control at 50 ppm in test [2] (setting [14]) and in test [3] (setting [15]) were 17% and 16%, respectively.
Regarding Flusilazole, the “Observed Efficacy” value in test [1] (setting [16]) came to 38; in test [2] (setting [14]), 100; in test [3] (setting [15]), 48.
For the molecule `CON=C(Cc1cccnc1)c1ccc(Cl)cc1Cl` [Pyrifenox], the pest or weed control at 0.4 ppm in test [1] (setting [5]), in test [2] (setting [7]) and in test [3] (setting [10]) was 0% each time. The pest or weed control at 2 ppm in test [1] (setting [6]), in test [2] (setting [8]) and in test [3] (setting [11]) was 0% in each case. In addition, the pest or weed control at 10 ppm in test [1] (setting [13]) and in test [2] (setting [9]) was 1% each time. Also, the pest or weed control at 50 ppm was determined as 20% in test [1] (setting [16]), 6% in test [2] (setting [14]) and 15% in test [3] (setting [15]).
